From patent publication US20050009886A1, “1,4-Dihydropyridine derivative with a guaiacoxypropanolamine and/or phenoxypropanolamine moiety” (priority 1998, published 2005) come the findings set out here.

The nature of assay [1]: Heart rate and blood pressure in living rat. In kind it is in vivo, Wistar rats. The conditions noted are these: 1 mg/kg via femoral vein, anaesthetized rat. An excerpt: Male Wistar rats, weighing 200˜300 g were abdominal anaesthetized with pentobarbital sodium. Tracheal was cannulated to maintain normal respiration. Polyethylene tube was inserted into the left femoral vein to facilitate drug administration. A 3-way stopcock was used, with one end connected to a syringe for drug injection, while the other end was connected to the syringe filled with physiological saline. The latter was used to prevent residual drugs in the polyethylene tube after injection, which would affect experimental accuracy.
The right femoral artery was also inserted with polyethylene, and a 3-way stopcock was used too, where one end was connected to heparin solution to prevent embolism. The other end was connected to a Disposable Diaphragm Dome, TA1019, and linked to a transducer. Through an amplifier, a recorder recorded the overall and average arterial pressure; heart rate to evaluate the effect of drug on blood pressure and heart rate.

Assay [2] concerns the target T1, β-adrenoreceptor (β1) (Rattus norvegicus, UniProt P18090).
T1 construct: The right and left atria were then separated; from tissue; host or cells: isolated rat right atrium (spontaneously beating) and left atrium (electrically paced)
In words: Isolated right atrium, L-isoproterenol-induced heart rate increase (pA2). Also noted: species or system Wistar rat. Particulars: for β1/β2: from pA2 difference right atrium vs tracheal; for β1 Right Atrium (Slope): slope of Schild regression; for β1 Value of pA2 Right Atrium: vs L-isoproterenol, Schild plot. On the procedure: The right and left atria were then separated. The spontaneously-beating right atria was clipped on both end by heart shaped clips, where one end was fixed at the bottom of 10 ml of tissue bath made of physiological saline solution, and temperature maintained at 37° C. The other end of the atria was connected to a force transducer, and isometric contractions and beating rate of the right atria were recorded by COULBOURN AT-High-Speed VideoFigure. After the samples were given 250 mg of contractions and reach equilibrium the following experiments were carried out: • (a) β-adrenoceptor blocking action
Cumulative administration interval was when the previous concentration reached its greatest effect, the next concentration would be immediately given.
The equation is as follows: pA2=−Log KB Log(DRADJ−1)=nlog[B]−LogKB [formula]
[B] Test compound concentration in moles • KB: equilibrium dissociation constant • n: value of slope DR: test EC50 divided by control EC50 • CF: EC50 of second or third control groups divided by EC50 of first control group (c) Effect of Compound on the Increase of Spontaneous Beating in Right Atrium Caused by CaCl2

Assay [3] addresses T1, β-adrenoreceptor (β1). In words: Isolated left atrium, L-isoproterenol-induced contractility increase (pA2). Particulars: for β1 Left Atrium (Slope): slope of Schild regression; for β1 Value of pA2 Left Atrium: vs L-isoproterenol, electrically stimulated. Details: species or system Wistar rat. As to the method: The inspontaneously-beating left atrial tissue was obtained from rat's isolated right atrial tissue experiments. […] The contraction rate was 1 Hz and the resting tension 0.5 gm. After 60 minutes of equilibration, the following experiments were performed:
(a) Completion of cumulative concentration-response curve: similar to experimental method on isolated right atrium;
(b) Calculation of pA2 value: similar to calculation method on isolated right atrium.

The target in another assay is T2, β2 (Cavia porcellus, UniProt Q8K4Z4).
T2 construct: a portion of tracheal approximately 4 cm long was removed; from tissue; host or cells: isolated trachea of reserpine-pretreated guinea pigs
T2 sequence (Q8K4Z4 whole entry): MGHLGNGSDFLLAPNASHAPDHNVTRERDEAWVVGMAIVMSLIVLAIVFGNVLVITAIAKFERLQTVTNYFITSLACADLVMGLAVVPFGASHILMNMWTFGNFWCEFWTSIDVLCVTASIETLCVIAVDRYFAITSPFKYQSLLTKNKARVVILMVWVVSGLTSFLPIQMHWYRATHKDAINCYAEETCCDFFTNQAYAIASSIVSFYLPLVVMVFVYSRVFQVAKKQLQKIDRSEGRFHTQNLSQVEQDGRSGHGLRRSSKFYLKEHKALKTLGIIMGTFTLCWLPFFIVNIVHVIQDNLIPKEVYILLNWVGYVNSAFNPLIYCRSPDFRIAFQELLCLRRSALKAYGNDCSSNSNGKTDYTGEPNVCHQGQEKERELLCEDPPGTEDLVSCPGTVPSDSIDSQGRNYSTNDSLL
In words: Guinea pig's isolated tracheal, L-isoproterenol relaxation of carbachol contraction (pA2). Particulars: for β2 Tracheal (slope): slope of Schild regression; for β2 Value of pA2 Tracheal: vs L-isoproterenol, carbachol 10^−6 M contraction. On the procedure: Guinea pigs of weight between 300˜500 gm were used. […] After the guinea pigs were sacrificed, a slit was made along the neck, and a portion of tracheal approximately 4 cm long was removed. […] The two ends of the tracheal were clamped with frog-heart shaped clamps, one end was fixed at the bottom of tissue bath filled with 20 ml of Kreb's solution, maintained at 37° C., while the other end was connected to a force transducer. Through a COULBOURN AT-High-Speed Videograph, long isometric contractions were recorded. After the sample was given 1.5 gm of tension and equilibrated, the following experiments were performed:
Then the tracheal was repeatedly washed with Kreb's solution for 20 minutes and 10−6 M of carbochol was added to cause contraction in the guinea pig's tracheal. […] This is the test group.
(b) Calculation of pA2: similar to the calculation method for isolated right atrium experiment.

The next assay relates to thoracic aorta. In words: Isolated thoracic aorta contraction caused by 75 mM KCl. Also noted: species or system Wistar rat. The conditions noted are these: 10^−8M; 75 mM KCl contraction. As to the method: After sacrificing Wistar rat of weight between 300-500 gm, the thoracic aorta was immediately removed and placed in cold Kreb's solution. The fatty connecting tissue surrounding the vessel wall was removed and the thoracic aorta was cut into rings of length 5 mm. The two ends of each ring was pieced and fixed with “Z” shaped platinum wires. […] The sample was given 1 gm of tension and equilibrated for 60 minutes before the following experiments were carried out:
After thoracic aorta had reached equilibrium in the tissue trough, the normal Kreb's solution in the trough was replaced with 75 mM KCl solution to induce vasoconstriction. When the results had been recorded for at least 35 minutes, the aorta was repeatedly rinsed with normal Kreb's solution. After the aorta had re-equilibrated and at least rested for 60 minutes, different concentrations (10^−8, 10^−7, 10^−6, and 10^−5M) of compound 1 were separately added. 30 minutes later, 75 mM KCl was added again to induce vasoconstriction. This method was used to compare the differences in contraction induced by 75 mM KCl on thoracic aorta pre-treated and non-treated with compound 1.
0.1 μM of BayK8644 was first added into the tissue trough. 10 minutes later, 75 mM of concentrated Potassium solution was added to induce thoracic aorta contraction. When vasoconstriction had reached stability, different concentrations of (10^−8, 10^−7, 10^−6, and 10^−5M) compound 1 were separately added. The effects of aorta contraction induced by concentrated Potassium solution were observed.

In the next assay the test system is Calcium. Nature of the assay: Calcium antagonism (pKCa^−1, Table 2).
For the next assay, the system named is isolated atria. In words: Direct effect (intrinsic sympathomimetic activity) on reserpine pretreated isolated atria. Also noted: species or system Wistar rat. Particulars: for direct effect on right atrium beating rate and left atrium isometric contractions: cumulative administration, reserpine pretreated. On the procedure:
Wistar rats of weight between 200˜300 gm were used. 18˜24 hours before the experiment, 5 mg/kg of reserpine was injected via abdominal cavity to remove all endogenous catecholamines. Prior experiment, Wistar rats were sacrificed, the heart was immediately removed and placed in Kreb's solution aerated with air mixture and maintained at room temperature. The right and left atria were carefully separated.

In a further assay the target is T3, β2-adrenoceptor (Cavia porcellus, UniProt Q8K4Z4).
T3 construct: a portion of tracheal approximately 4 cm long was removed; from tissue; host or cells: isolated trachea of reserpine-pretreated guinea pigs
T3 sequence (Q8K4Z4 whole entry): as above
In words: Direct effect (intrinsic sympathomimetic activity) on reserpine pretreated isolated tracheal. Details: species or system guinea pig. The conditions noted are these: cumulative 10^−10˜3×10^−6 M, reserpine pretreated tracheal. As to the method:
18˜24 hours before the experiment, 5 mg/kg of reserpine was injected via abdominal cavity to remove all endogenous catecholamines. Prior experiment, guinea pigs were sacrificed, the tracheal was immediately removed and placed in Kreb's solution aerated with air mixture and maintained at room temperature of 22˜25° C. […] Then the tissue was repeatedly washed with Kreb's solution.

T1 sequence (P18090 whole entry): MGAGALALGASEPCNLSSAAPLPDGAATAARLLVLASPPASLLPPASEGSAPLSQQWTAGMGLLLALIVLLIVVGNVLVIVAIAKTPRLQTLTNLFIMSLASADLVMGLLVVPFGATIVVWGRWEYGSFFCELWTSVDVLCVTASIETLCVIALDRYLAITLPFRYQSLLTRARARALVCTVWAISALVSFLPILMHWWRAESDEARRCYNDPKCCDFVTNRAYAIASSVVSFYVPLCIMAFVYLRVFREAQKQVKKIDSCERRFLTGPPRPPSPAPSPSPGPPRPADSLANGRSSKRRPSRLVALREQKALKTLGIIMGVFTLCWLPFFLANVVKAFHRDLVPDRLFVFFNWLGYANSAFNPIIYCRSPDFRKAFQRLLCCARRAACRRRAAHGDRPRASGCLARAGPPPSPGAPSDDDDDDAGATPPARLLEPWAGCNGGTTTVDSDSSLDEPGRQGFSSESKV

On to `CCOC(=O)C1=C(C)NC(C)=C(C(=O)OCC)C1c1cc(Cl)ccc1OCC(O)CNCCOc1ccccc1OC` (stereo not drawn) [Compound 6], for which, in assay [1], the “Lowering of Blood Pressure” value was 80 ± 3 mmHg and the “Reduction of Heart Rate” value stood at 35 ± 5 beats/min. Besides, at β-adrenoreceptor (β1) [2], the “Ratio of β1 and Calcium Antagonism” value is reported as 0.11; the β1/β2 was 1.29; the “β1 Right Atrium (Slope)” value is on record as “(0.88 ± 0.12)”; the “β1 Value of pA2 Right Atrium” value is 7.41 ± 0.34. At β-adrenoreceptor (β1) [3], the “β1 Left Atrium (Slope)” value is on record as “(0.91 ± 0.09)” and the “β1 Value of pA2 Left Atrium” value is listed as 7.01 ± 0.28. Besides, at β2, the “β2 Tracheal (slope)” value is given as “(0.90 ± 0.19)” and the “β2 Value of pA2 Tracheal” value stood at 7.31 ± 0.19. Besides, in the assay with thoracic aorta, the “Aorta Relaxation” value was 45 ± 4%. Moreover, the “Calcium Antagonism PKCa^−1” value in the assay on Calcium worked out at 8.01 ± 0.45.

`CCOC(=O)C1=C(C)NC(C)=C(C(=O)OCC)C1c1ccc(OCC(O)CNCCOc2ccccc2OC)c(Cl)c1` (stereo not drawn) [Compound 7, 4-{{N-{4-[2-hydroxy-3-(2-methoxy-1-oxyethyl-aminobenzene)propoxy]-3-choloro}phenyl} }-2,6-dimethyl-3,5-dicarbo-ethoxy-1,4-dihydropyridine]: in assay [1], the “Lowering of Blood Pressure” value was found to be 82 ± 6 mmHg and the “Reduction of Heart Rate” value is 40 ± 2 beats/min. Also, on β-adrenoreceptor (β1) [2], the “Ratio of β1 and Calcium Antagonism” value is listed as 0.07; the β1/β2 is 1.34; the “β1 Right Atrium (Slope)” value is listed as “(0.91 ± 0.08)”; the “β1 Value of pA2 Right Atrium” value was found to be 7.77 ± 0.34. Besides, at β-adrenoreceptor (β1) [3], the “β1 Left Atrium (Slope)” value was “(0.88 ± 0.27)” and the “β1 Value of pA2 Left Atrium” value came out at 6.97 ± 0.29. Also, at β2, the “β2 Tracheal (slope)” value was “(0.89 ± 0.21)” and the “β2 Value of pA2 Tracheal” value was 7.28 ± 0.21. In addition, in the assay on thoracic aorta, the “Aorta Relaxation” value was 45 ± 5%. Besides, in the assay with Calcium, the “Calcium Antagonism PKCa^−1” value is reported as 8.06 ± 0.27.

As for `CCOC(=O)C1=C(C)NC(C)=C(C(=O)OCC)C1c1cc([N+](=O)[O-])ccc1OCC(O)CNC(C)(C)C` (stereo not drawn) [Compound 8], in assay [1], the “Lowering of Blood Pressure” value came out at 80 ± 3 mmHg and the “Reduction of Heart Rate” value is 40 ± 4 beats/min. At β-adrenoreceptor (β1) [2], the “Ratio of β1 and Calcium Antagonism” value stood at 0.08; the β1/β2 was 1.29; the “β1 Right Atrium (Slope)” value is listed as “(0.83 ± 0.21)”; the “β1 Value of pA2 Right Atrium” value worked out at 7.89 ± 0.23. In addition, on β-adrenoreceptor (β1) [3], the “β1 Left Atrium (Slope)” value is recorded as “(0.89 ± 0.12)” and the “β1 Value of pA2 Left Atrium” value is reported as 7.03 ± 0.18. Besides, at β2, the “β2 Tracheal (slope)” value is on record as “(0.92 ± 0.17)” and the “β2 Value of pA2 Tracheal” value came out at 7.27 ± 0.19. Moreover, in the assay with thoracic aorta, the “Aorta Relaxation” value was 43 ± 3%. In the assay on Calcium, the “Calcium Antagonism PKCa^−1” value turned out to be 8.09 ± 0.13.

On to `CCOC(=O)C1=C(C)NC(C)=C(C(=O)OCC)C1c1cc([N+](=O)[O-])ccc1OCC(O)CNCCOc1ccccc1OC` (stereo not drawn) [Compound 9], for which, in assay [1], the “Lowering of Blood Pressure” value came out at 85 ± 6 mmHg and the “Reduction of Heart Rate” value stood at 40 ± 5 beats/min. Moreover, on β-adrenoreceptor (β1) [2], the “Ratio of β1 and Calcium Antagonism” value is 0.07; the β1/β2 is listed as 1.30; the “β1 Right Atrium (Slope)” value was “(0.88 ± 0.09)”; the “β1 Value of pA2 Right Atrium” value was 7.78 ± 0.12. In addition, on β-adrenoreceptor (β1) [3], the “β1 Left Atrium (Slope)” value was “(0.91 ± 0.18)” and the “β1 Value of pA2 Left Atrium” value came out at 7.12 ± 0.09. On β2, the “β2 Tracheal (slope)” value is “(0.88 ± 0.23)” and the “β2 Value of pA2 Tracheal” value is 7.33 ± 0.24. In addition, in the assay on thoracic aorta, the “Aorta Relaxation” value stood at 47 ± 2%. Besides, the “Calcium Antagonism PKCa^−1” value in the assay with Calcium came out at 8.12 ± 0.32.

Consider `CC(C)NC[C@H](O)c1ccc(O)c(O)c1` [L-isoproterenol], for which the “direct effect on right atrium beating rate and left atrium isometric contractions” value in the assay on isolated atria is “dose-dependently increase the right atrium beating rate and left atrium isometric contractions”.

In the case of `CC(C)NCC(O)COc1cccc2ccccc12` (stereo not drawn) [Propranolol], the “direct effect on right atrium beating rate and left atrium isometric contractions” value with isolated atria was “could retard the beating rate and isometric contractions”.

For `COc1cc(C=O)ccc1OCC(O)CNC(C)(C)C` (stereo not drawn) [Vanidilol, reference compound], the “effect on right atrium relative to tracheal (selectivity ratio of β1 type adrenoceptor)” value at β-adrenoreceptor (β1) [2] (from average pA2 difference between right atrium and tracheal) is 0.98 ×. In addition, the “selectivity on the type of β-adrenoceptor” value on β-adrenoreceptor (β1) [2] (β1:β2) is “non-selective”. For the same compound, on β2-adrenoceptor, the “direct tracheal relaxation effect” value is “dose-dependant tracheal relaxation effect”.

As for `CC(C)NCC(O)COc1ccc(CC(N)=O)cc1` (stereo not drawn) [atenolol], the “atrial blocking effect” value in the assay with isolated atria (3×10−4M) is reported as “almost does not have atrial blocking effect”.
